Legend:
[1] = test system: TGF-beta; experiment: TGF-beta in vessel wall of apoE knockout mice (quantitative immunofluorescence); assay type: in vivo, mouse; settings: 87 days treatment
Protocol: No. 08/478,936, filed Jun. 7, 1995, which is incorporated by reference herein. […] Sigma) and fixed in ice-cold acetone for 90 seconds, air-dried and stored at -20° C. until assayed. […] R&D Systems), see Mosedale et al., Histochem. Cytochem., 44, 1043 (1996), the disclosure of which is incorporated by reference herein. Active TGF-beta wag measured by quantitative immunofluorescence microscopy using the recombinant extracellular domain of the type II TGF-beta receptor […]) labeled with fluorescein.

[2] = test system: smooth muscle α-actin (SM-α-actin); experiment: SM-alpha-actin in vessel wall (quantitative immunofluorescence); assay type: in vivo, mouse; settings: 87 days treatment
Protocol: (§1) SM-α-actin and osteopontin were measured by quantitative immunofluorescence microscopy using specific primary antibodies A-6125 (Sigma) and MBP111Bio (NIH Developmental Studies Hybridoma Bank), respectively.

[3] = test system: osteopontin; experiment: Osteopontin in vessel wall (quantitative immunofluorescence); assay type: in vivo, mouse; settings: 87 days treatment
Protocol: as §1

[4] = Serum lipid and lipoprotein profile of apoE knockout mice; assay type: in vivo, mouse
Protocol: The effect of each treatment on the lipid profile of each group of mice was determined by measuring the cholesterol and triglyceride. Blood from a terminal bleed was collected in a polypropylene tube, allowed to clot at room temperature for 2 hours and then spun (1,000×g; 5 minutes). The serum supernatant was aliquoted and stored at −20° C. until assayed. Total cholesterol and total triglycerides were determined for each mouse using the cholesterol oxidase and glycerol kinase UV end-point enzymatic methods respectively (Sigma Diagnostics).

[5] = Simvastatin for 16 weeks in patients with high cholesterol; assay type: in vivo, human; settings: six time points
Protocol: Twenty six patients with high cholesterol were administered simnvastatin for 16 weeks. Blood was collected at six times points during the 16 weeks and analyzed for TGF-beta levels.

[6] = test system: apoE knockout mice; experiment: Lipid lesion development in aortic sinus of apoE knockout mice (Oil Red O)
Protocol: To determine the efficacy of combination therapy, and to provide evidence for synergism between aspirin and fish oil, 8-week-old female apoE knockout mice were fed aspirin or fish oil, or both, to assess the cardioprotective effects of modulating different components of the TGF-beta pathway.
Group A mice (n=10) were sacrificed at day 0. Group B mice (n=10) were fed normal chow. […] Group D mice (n=10) were fed chow containing 33 mg/kg/day fish oil (200 μg Pulse cod liver oil/g food, Seven Seas Ltd., which contains 0.9 g eicosapentaenoic acid (EPA), and 0.3 g docosahexaenoic acid (DHA)) and 3 mg/kg/day aspirin dissolved in water. Group E mice (n=10) were fed chow containing 33 mg/kg/day fish oil. Group F mice (n=10) were fed chow containing Zocor (simvastatin; Zocor tablets, Merck, Sharpe & Dohme) at 400 μg/kg/day (2 μg/g food).
Groups B-F were fed these regimens for 87 days. All mice were weighed daily for the first week and weekly thereafter. Food and water consumption over a 24 hour period were measured daily for the first 7 days and weekly thereafter.
After 87 days, mice in groups B-F were fasted overnight and then sacrificed. Serum, heart, lungs and aorta samples were collected at the time of sacrifice. The heart, lungs and aorta were removed from each mouse and rinsed in PBS, dabbed dry on tissue and embedded in Cryo-M-bed embedding medium (Bright Instruments, Huntington, U.K.) before snap freezing in liquid nitrogen. Frozen sections (4 μm thickness) of the aortic sinus region were prepared from the heart/lung/aorta blocks according to the sectioning strategy of Paigen et al. (Arteriosclerosis, 10, 316 (1990)). Sections on 5% gelatin-coated slides were stained for neutral lipid by the Oil Red O technique and counter-stained with fast green (Grainger et al., Nature Med., 1, 1067 (1995)).
The development of lipid-filled vascular lesions was determined by the quantitation of oil red O staining for neutral lipid deposited in the aortic sinus region. The area of lipid accumulation was measured using a calibrated microscope eye-piece, such that lipid droplets<50 μm^2 were ignored and contiguous regions of lipid staining>500 μm in area were classified as lesions.

[7] = single measurement on pooled blood of the group

CCC(C)(C)C(=O)O[C@H]1C[C@@H](C)C=C2C=C[C@H](C)[C@H](CC[C@@H]3C[C@@H](O)CC(=O)O3)[C@H]21 [Zocor, simvastatin]
Active + Latent TGF-beta in Vessel Wall [1]: 44 ± 5 | Active TGF-beta in Vessel Wall [1]: 20 ± 3 | SMα Actin [2]: 114 ± 19 | Osteopontin [3]: 73 ± 8 | Total cholesterol ([4]; serum, 87 days treatment): 224 ± 29 mg/dL | Total triglyceride ([4]; serum, 87 days treatment): 266 ± 14 mg/dL | HDL-cholesterol [4, 7]: 35 mg/dL | LDL-cholesterol [4, 7]: 54 mg/dL | VLDL-cholesterol [4, 7]: 158 mg/dL | change in LDL-cholesterol vs control mice ([4]; three months): −41% | change in VLDL-cholesterol vs control mice ([4]; three months): −14% | change in total plasma cholesterol vs control mice ([4]; three months): −27% | reduction in total plasma triglyceride concentration ([4]; three months): −12% | effect on TGF-beta levels [5]: no effect | change in lesion development / lesion formation vs untreated mice ([6]; 3 month treatment): −7% | Number of Lesions ([6]; 87 days treatment): 8.1 ± 0.4 | Lesion Area (μm^2 staining) ([6]; 87 days treatment, per mouse, n=10): 25,777 ± 1368 μm^2
